Consider eight compounds from PubChem BioAssay (NCI).

Common to all, as to assay: DTP human tumour cell line panel, 48 h
Experiment [1] relates to EKVX NSCLC.
Experiment [2] concerns HCT-116 colon.
Experiment [3] deals with HT29 colon.
The test system of experiment [4] is MALME-3M melanoma.
Experiment [5] deals with MDA-MB-435.
Experiment [6] relates to NCI-H23 lung.
For experiment [7], the system named is NCI-H522 lung.
Experiment [8] relates to OVCAR-3 ovarian.
The test system of experiment [9] is OVCAR-5 ovarian.
The test system of experiment [10] is SF-295 CNS.
Experiment [11] deals with SF-539 CNS.
Experiment [12] concerns SK-OV-3 ovarian.
Experiment [13] concerns SN12C renal.
In experiment [14] the test system is SR leukemia.
The test system of experiment [15] is SW-620 colon.
Experiment [16] relates to TK-10 renal.
Experiment [17] relates to UACC-257 melanoma.
Experiment [18] relates to UACC-62 melanoma.
Experiment [19] has as its system A549 NSCLC.

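Compound exposure: 48 hours, 5 concentrations, 96-well plates. TGI is the concentration that stops growth completely.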 Where only a bound is given, the exact number is not on record here.

As a reminder, the TGI is the concentration at which net growth stops. Higher therefore signals less potent growth arrest. For the compound `Cc1ccnc2[nH]c3ccccc3c(=O)c12`, the TGI in [1] was 71.7 µM; in experiment [2], > 100 µM; in experiment [3], 36 µM; in [4], 43.1 µM; in [5] it was 41.8 µM; in experiment [6] it was 90.6 µM. In addition, the TGI in experiment [7] is 32.9 µM; in [8], 72.1 µM; in [9], > 100 µM; in experiment [10] it was > 100 µM; in experiment [11], 46.6 µM; in experiment [12], > 100 µM. Moreover, the TGI in [13] is 52.4 µM; in experiment [14] it was > 100 µM; in experiment [15], > 100 µM; in experiment [16] it was 36.3 µM; in experiment [17] it was > 100 µM; in experiment [18] it was 40 µM.
Take `Cn1ccc(C(=O)NCCN(CCNC(=O)c2ccn(C)c(=O)c2O)CCNC(=O)c2cccc(=O)n2O)c(O)c1=O`: the TGI in [19], in experiment [2], in [3], in [4], in experiment [5] and in experiment [6] was > 100 µM in each case. Moreover, the TGI in experiment [7], in experiment [8], in experiment [9], in [10], in experiment [11] and in experiment [12] was > 100 µM each time. In addition, the TGI in [13], in experiment [14], in experiment [15], in experiment [17] and in experiment [18] was > 100 µM each time.
Consider `OC1C#CCSCC#C/C=C\1` (stereo not drawn), for which the TGI in [1], in experiment [2], in [3], in [4], in [5] and in experiment [6] was > 100 µM throughout. The TGI in experiment [7] was 32.9 µM; in experiment [8], > 100 µM; in experiment [9], > 100 µM; in experiment [10], > 100 µM; in [11] it was > 100 µM; in experiment [12], > 100 µM. In addition, the TGI in experiment [13] is > 100 µM; in experiment [14], > 100 µM; in experiment [15], 36.6 µM; in experiment [16], > 100 µM; in experiment [17] it was > 100 µM; in [18], > 100 µM.
In the case of `O=C(O)C(NCc1ccccc1)C(NCc1ccccc1)C(=O)O` (stereo not drawn), the TGI in [19], in experiment [1], in experiment [2], in experiment [3], in experiment [4] and in experiment [5] was > 100 µM each time. The total growth inhibition concentration (TGI) in [6], in [7], in experiment [8], in experiment [10], in experiment [11] and in [12] was > 100 µM each time. Moreover, the TGI in experiment [13], in experiment [14], in experiment [15], in experiment [16], in [17] and in experiment [18] was > 100 µM each time.
Regarding `CSc1ncnc2c1ncn2CCC(=O)OC(C)(C)C`, the TGI in experiment [19], in experiment [1], in experiment [2], in [3], in [4] and in experiment [5] was > 100 µM throughout. Also, the TGI in experiment [6], in experiment [7], in experiment [8], in experiment [9], in [10] and in experiment [11] was > 100 µM each time. The TGI in [12], in experiment [13], in [14], in [15], in experiment [16] and in [17] was > 100 µM throughout.
With `COC(=O)c1ccccc1/C=C1\Cc2ccc(C)c(C)c2C1=O`, the TGI in [19], in experiment [1], in [2], in [3], in [4] and in experiment [5] was > 100 µM throughout. Also, the TGI in experiment [6], in [7], in [8], in experiment [9], in experiment [10] and in experiment [11] was > 100 µM each time. For the same compound, the concentration for total growth inhibition (TGI) in [13], in [14], in experiment [15], in [16], in experiment [17] and in experiment [18] was > 100 µM in each case.
On to `COC(CNC(=O)C(C)NC(=O)/C=C/c1ccccc1)OC` (stereo not drawn), for which the TGI in experiment [19], in experiment [1], in experiment [2], in experiment [3], in experiment [4] and in [5] was > 100 µM in each case. Besides, the TGI in [6], in experiment [7], in [9], in experiment [10], in experiment [11] and in experiment [12] was > 100 µM throughout. The TGI in [13], in [14], in experiment [15], in experiment [16], in experiment [17] and in [18] was > 100 µM in each case.
As to `COc1ccc(P2(=S)OC(C)(C)C(C)(C)O2)cc1`, the TGI in experiment [19], in experiment [1], in [2], in experiment [3], in experiment [4] and in [5] was > 100 µM each time. The TGI in experiment [6], in experiment [7], in experiment [8], in experiment [9], in [10] and in experiment [11] was > 100 µM in each case. Also, the concentration for total growth inhibition (TGI) in [13], in experiment [14], in experiment [15], in experiment [16], in experiment [17] and in [18] was > 100 µM in each case.
